{
  "source": "patent US7608612B2",
  "about": "“Radiosensitizer formulations and methods for use” (priority 2005, dated 2009)",
  "key": {"[1]": {"system": "Lewis lung carcinoma", "experiment": "In vivo growth retardation experiment 1 with Lewis lung carcinoma", "design": "species or system mice (C-57)", "procedure": "FIG. 4 is an in vivo Growth Retardation Study of Lewis lung carcinoma in […]. Groups of 5-6 mice were subcutaneously implanted with Lewis Lung Carcinoma cells and permitted to grow a small measurable tumor in the hind leg. Radiosensitizers were given by i.p. injection. In some comparative experiments, nitrohistidine was employed at half the concentration of misonidazole. The measurable tumors were treated with a single 500 cGy fraction of 9 MeV electrons.\nFIG. 5 is a tumor size assessment plot from the Growth Retardation Study of FIG. 4, showing tumor size as a function of time (in days).\nGroups of 5-6 mice (C-57) were subcutaneously implanted in the hind leg with Lewis lung carcinoma cells and the cells were permitted to grow until a measurable tumor was evident. Radiosensitizers were administered using i.p. injection at 2 mM concentration, and then treated with a single 500 cGy dose administered with a 9 MeV electron beam and tumor size measured daily for a period of 9 days. Control mice were implanted with tumor cells and left untreated."}, "[2]": {"system": "protozoa", "conditions": "Brossi et al.; cited from earlier work"}, "[3]": {"system": "Chinese hamster ovary (CHO) cells", "experiment": "In vitro study of 4(5)-nitrohistidine as a radiosensitizer, 300 cGy 9 MeV electron beam", "type": "cell-based", "procedure": "FIG. 2A is an in vitro study of nitrohistidine on Chinese hamster ovary (CHO) cells. CHO cells were in use in an F12 medium with fetal calf serum. A 9 MeV electron beam was used to irradiate the Petri dishes, dose 300 cGy, and a concentration range of 1-4 mM nitrohistidine was employed.\nFIG. 2B is an in vitro study of nitrohistidine compared to misonidazole on CHO cells.\nAn in vitro study using Chinese hamster ovary (CHO) cells was carried out using F12 medium with fetal calf serum for growth of the CHO cells. A 9 MeV electron beam, generated by a Varian Clinac 1800 instrument, was used to irradiate the Petri dishes, at a dose of 300 cGy, and a concentration of 1 to 4 mM 4(5)-nitrohistidine was added alone, or in combination with the radiation dose."}, "[4]": {"system": "Lewis lung carcinoma", "experiment": "In vivo growth retardation experiment 2 with Lewis lung carcinoma (comparison with misonidazole)", "design": "species or system mice", "conditions": "for tumor growth course (in words): mice with Lewis lung carcinoma, radiosensitizer plus radiation", "text": "Another growth retardation study was done in mice implanted with Lewis lung carcinoma comparing 4(5)-nitrohistidine (NHis) plus radiation treatment to misonidazole plus radiation treatment."}, "[5]": {"system": "Chinese hamster ovary (CHO) cells", "experiment": "In vitro study of 4(5)-nitrohistidine as a radiosensitizer under hypoxic conditions", "type": "cell-based", "conditions": "30 min hypoxic pre-incubation"}, "[6]": {"system": "Chinese hamster ovary (CHO) cells", "experiment": "In vitro synergism of buthionine sulfoximine and 4(5)-nitrohistidine as radiosensitizers", "type": "cell-based", "conditions": "compounds at 2 mM, radiation 0 to 10 Gy", "procedure": "Buthionine sulfoximine is an agent known to deplete the levels of endogenous detoxifier and radioprotector glutathione. […] In several experiments, as here, the enhancement ration was greater than two with both agents present. CHO cells were used in the experiments and trhe compounds were present at 2 mM concentration as indicated.\nChinese hamster ovary cells were grown on F12 medium supplemented with fetal calf serum. Cells were treated with dosages of radiation from 0 to 10 Gy, using a 9 MeV electron beam as above, either alone or in the presence of nitrohistidine, buthionine sulfoximine, or 4(5)-nitrohistidine plus buthionine sulfoximine together. When present, the buthionine sulfoximine and 4(5)-nitrohistidine were added at 2 mM concentration. […] S. fractions remaining for the combined dual drug/radiation treatment indicate an initial lag time, before continued depletion of cells surviving, down to less than 0.01 SF at 10 Gy in the presence of both NHis and BSO. The enhancement ratio calculated for the combined treatment was greater than two over that of any other treatment combination."}, "[7]": {"system": "tumors", "conditions": "number of trials out of all trials; cited from earlier work"}, "[8]": {"conditions": "first group of mice, NHis+XRT, day 9"}, "[9]": {"conditions": "second group of mice, NHis+XRT, day 9"}},
  "note": "“Also recorded” adds a separate entry of the source.",
  "data": [
    {"compound": "NC(Cc1nc[nH]c1[N+](=O)[O-])C(=O)O", "note": "(stereo not shown) [4(5)-nitrohistidine]", "values": [
      {"measurement": "growth retardation compared to the control group", "setting": "[1]; [8]", "result": "about 22%"},
      {"measurement": "growth retardation compared to the group treated with radiation alone", "setting": "[1]; [8]", "result": "about 10%"},
      {"measurement": "tumor size at day 9", "setting": "[1]; first group of mice, NHis+XRT, i.p., single 500 cGy dose", "result": "about 18 mm"},
      {"measurement": "tumor size at day 9", "setting": "[1]; second group of mice, NHis alone without radiation (same value given for control)", "result": "about 21 mm"},
      {"measurement": "tumor size at day 9", "setting": "[1]; second group of mice, NHis+XRT", "result": "about 15 mm"},
      {"measurement": "growth retardation compared to the XRT treatment alone", "setting": "[1]; [9]", "result": "~35", "unit": "%"},
      {"measurement": "growth retardation compared to the control or NHis alone", "setting": "[1]; [9]", "result": "about 29%"},
      {"measurement": "efficacy as an anti-protozoal agent relative to known anti-protozoal nitroimidazole agents", "setting": "[2]", "result": "zero"},
      {"measurement": "toxicity of nitrohistidine alone (S. fraction, surviving fraction of cells)", "setting": "[3]; 1-4 mM nitrohistidine, no radiation", "result": "did not appear to possess toxicity by itself; also recorded: did not exhibit any toxicity"},
      {"measurement": "effective concentration range for radiosensitization", "setting": "[3]; 300 cGy", "result": "1 to 4", "unit": "mM"},
      {"measurement": "S. fraction (surviving fraction) in the presence of ionizing radiation (Nitro+XRT)", "setting": "[3]; 300 cGy, all four concentrations 1 to 4 mM", "result": "under 0.6"},
      {"measurement": "radiosensitizing effectiveness of 2 mM compared with 5 mM", "setting": "[3]; additional studies, data not shown", "result": "nearly as effective as 5 mM"},
      {"measurement": "tumor growth course (in words)", "setting": "[4]", "result": "plateau in tumor growth after 9-10 days"},
      {"measurement": "in vivo radiosensitizer potency compared with misonidazole", "setting": "[4]; plus radiation, in vivo", "result": "more potent and effective radiosensitizer than misonidazole"},
      {"measurement": "S. Fraction at 10 Gy", "setting": "[5]; 2 mM plus radiation", "result": "about 0.006"},
      {"measurement": "calculated enhancement ratio", "setting": "[5]; 2 mM, at the 0.1 level SF value (90% killing), versus radiation alone", "result": 1.38}
    ]},
    {"compound": "CCCCS(=N)(=O)CCC(N)C(=O)O", "note": "(stereo not shown) [Buthionine sulfoximine, buthionine sulfoximine]", "values": [
      {"measurement": "radiosensitization / synergism (in words)", "setting": "[6]", "result": "some radiosensitization properties of its own"}
    ]},
    {"compound": "COCC(O)Cn1ccnc1[N+](=O)[O-]", "note": "(stereo not shown) [misonidazole, reference compound]", "values": [
      {"measurement": "clinical trials that suggested any clinical benefit as a radiosensitizer", "setting": "[7]", "result": "5 of 38"},
      {"measurement": "tumor growth course (in words)", "setting": "[4]", "result": "no ability to retard tumor growth"}
    ]}
  ]
}
